Laboratory results reported in patent US10550100B2, “5-[3-[piperzin-1-yl]-3-oxo-propyl]-imidazolidine-2,4-dione derivatives as ADAMTS 4 and 5 inhibitors for treating E.G. osteoarthritis” (GALAPAGOS NV, priority 2016, dated 2020).
Where two headings read alike, the source gives them in different places.

Columns and labels:
Format in all cases: biochemical
human TACE = human TACE (Homo sapiens (Human), UniProt P78536); assay: hTACE 5FAM-[…]-5TAMRA cleavage assay; details: 75 min at room temperature, read-out: hTACE potency IC50
Description: Finally, the fluorescence is read on the Envision (Perkin Elmer) after an incubation of 75 min at room temperature (Excitation 485 nm, Emission 530).

human ADAMTS6 = human ADAMTS6 (Homo sapiens (Human), UniProt Q9UKP5); assay: hADAMTS-6 520 MMP FRET substrate XII cleavage assay; details: 37° C. for 2 h, read-out: hADAMTS-6 potency IC50
Text: The IC50 value for test compounds can be determined in a fluorescent based protease assay.
The basis for the assay is the cleavage of the substrate 520 MMP FRET substrate XII by human ADAMTS6.
The substrate contains sequence Arg-Pro-Lys-Pro-Tyr-Ala-Nva-Trp-Met-Lys (SEQ ID NO: 7) with attached a fluorescent probe and a quencher. Without ADAMTS6, the emission of the probe is quenched. If the substrate is cleaved by ADAMTS6, the emission of the probe is not quenched anymore. Inhibition of ADAMTS6 activity, will result in a decrease of the signal.
To perform the assay, 4 μL of a dilution series of compound in water, starting from 20 μM highest concentration, 1/5 dilution, is added to the wells. 2 ng ADAMTS6 enzyme is diluted in 25 mM Tris pH8.0, 0.05% CHAPS, 2.5 mM CaCl2 in a total volume of 26 μL (final concentration 0.73 nM). The reaction is started by addition of 10 μL of 1 μM 520 MMP FRET Substrate XII (final concentration, diluted in same buffer as described above) and the mixture is incubated at 37° C. for 2 h. […] After this incubation, cleavage of the substrate is measured using the Envision (Perkin Elmer, exc485/em530).

human ADAMTS-5 = human ADAMTS-5 (Homo sapiens (Human), UniProt Q9UNA0); assay: hADAMTS-5 TBIS-1 cleavage assay, Protocol 3; details: Protocol 3, TBIS-1 substrate, 90 min at 37° C.; read-out: hADAMTS-5 potency IC50
Description: The reaction is initiated by adding to the assay plate TBIS-1 (10 μL, 4.5 μM, Anaspec) in the same buffer.
Finally, the fluorescence is read on the Envision (Perkin Elmer) after an incubation of 90 min at 37° C. (Excitation 485 nm, emission 530).

human ADAMTS-5, sequence (Q9UNA0 262-930): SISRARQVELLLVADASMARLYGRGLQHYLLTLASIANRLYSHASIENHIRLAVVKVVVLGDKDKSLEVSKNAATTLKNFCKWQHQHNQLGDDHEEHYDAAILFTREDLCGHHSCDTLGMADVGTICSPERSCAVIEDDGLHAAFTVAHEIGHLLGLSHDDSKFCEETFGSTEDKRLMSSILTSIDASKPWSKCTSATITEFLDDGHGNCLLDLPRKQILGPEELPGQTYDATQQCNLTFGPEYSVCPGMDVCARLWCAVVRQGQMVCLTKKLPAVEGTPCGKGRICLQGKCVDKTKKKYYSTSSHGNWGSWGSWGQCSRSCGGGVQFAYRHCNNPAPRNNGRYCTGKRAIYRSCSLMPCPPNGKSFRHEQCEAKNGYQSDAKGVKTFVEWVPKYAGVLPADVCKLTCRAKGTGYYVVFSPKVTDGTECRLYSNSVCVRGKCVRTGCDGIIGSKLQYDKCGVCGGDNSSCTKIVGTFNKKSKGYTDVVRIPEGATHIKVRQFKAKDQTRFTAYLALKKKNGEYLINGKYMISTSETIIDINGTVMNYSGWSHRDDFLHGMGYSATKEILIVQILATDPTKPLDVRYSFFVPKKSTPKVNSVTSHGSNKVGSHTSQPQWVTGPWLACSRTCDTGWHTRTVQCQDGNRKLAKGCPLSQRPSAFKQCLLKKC
human ADAMTS6, sequence (Q9UKP5 other isoform, or with tags, fused parts or gaps): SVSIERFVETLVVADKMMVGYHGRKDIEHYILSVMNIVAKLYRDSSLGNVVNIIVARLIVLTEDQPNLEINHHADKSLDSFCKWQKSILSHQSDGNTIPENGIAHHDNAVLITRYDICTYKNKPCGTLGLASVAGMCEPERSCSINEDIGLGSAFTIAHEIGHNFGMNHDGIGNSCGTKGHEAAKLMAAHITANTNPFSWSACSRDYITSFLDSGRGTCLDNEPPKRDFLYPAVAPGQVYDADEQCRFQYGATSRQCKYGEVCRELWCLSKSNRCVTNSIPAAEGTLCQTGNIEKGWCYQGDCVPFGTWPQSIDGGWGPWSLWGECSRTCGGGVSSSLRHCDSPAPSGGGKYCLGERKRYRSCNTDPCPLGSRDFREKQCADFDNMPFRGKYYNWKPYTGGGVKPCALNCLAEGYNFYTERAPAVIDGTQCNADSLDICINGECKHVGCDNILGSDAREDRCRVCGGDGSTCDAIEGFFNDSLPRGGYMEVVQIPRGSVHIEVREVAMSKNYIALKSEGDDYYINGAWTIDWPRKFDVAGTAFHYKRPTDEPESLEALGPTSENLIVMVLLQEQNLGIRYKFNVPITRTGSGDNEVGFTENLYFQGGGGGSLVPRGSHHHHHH
human TACE, sequence (P78536 215-671): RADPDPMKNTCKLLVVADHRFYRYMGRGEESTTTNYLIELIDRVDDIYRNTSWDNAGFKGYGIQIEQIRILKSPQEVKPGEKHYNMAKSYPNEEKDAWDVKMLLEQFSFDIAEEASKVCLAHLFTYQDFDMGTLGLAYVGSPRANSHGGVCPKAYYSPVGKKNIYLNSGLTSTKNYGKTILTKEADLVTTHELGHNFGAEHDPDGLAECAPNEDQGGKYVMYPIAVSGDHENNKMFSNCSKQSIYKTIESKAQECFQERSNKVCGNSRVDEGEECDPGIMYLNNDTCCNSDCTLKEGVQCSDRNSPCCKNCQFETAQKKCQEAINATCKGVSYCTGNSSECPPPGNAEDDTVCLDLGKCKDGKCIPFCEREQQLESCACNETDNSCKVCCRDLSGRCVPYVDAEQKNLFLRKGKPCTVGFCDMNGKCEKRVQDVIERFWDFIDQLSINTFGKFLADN

Row | Compound | IC50 (human TACE; 5FAM-[…]-5TAMRA) [nM] | IC50 (human ADAMTS6) [nM] | IC50 (human ADAMTS-5) [nM] | IC50 (human TACE; 5FAM-LAQAVRSSSRK-5TAMRA) [nM]
1 | COc1cc(C2CCN(C(=O)CC[C@@]3(C)NC(=O)NC3=O)CC2)cc(Cl)c1Cl [Cpd 68, (R)-5-(3-(4-(3,4-dichloro-5-methoxyphenyl)piperidin-1-yl)-3-oxopropyl)-5-methylimidazolidine-2,4-dione] | 50 to 100 | 0.001 to 25 |  | 
2 | COc1cc(C2CCN(C(=O)CCC3(C)NC(=O)NC3=O)CC2)c(C)cc1Cl (centres unmarked) [Cpd 37, 5-(3-(4-(4-chloro-5-methoxy-2-methylphenyl)piperidin-1-yl)-3-oxopropyl)-5-methyl-imidazolidine-2,4-dione] |  | 0.001 to 25 |  | 
3 | COc1ccc(OC)c(C2CCN(C(=O)CCC3(C)NC(=O)NC3=O)CC2)c1 (centres unmarked) [Cpd 39, 5-(3-(4-(2,5-dimethoxy-phenyl)piperidin-1-yl)-3-oxopropyl)-5-methyl-imidazolidine-2,4-dione] |  | > 100 | > 100 | 
4 | O=C1NC(=O)[C@@H](CCC(=O)N2CCC(c3ccc(F)c(F)c3)CC2)N1 [Cpd 53, (R)-5-(3-(4-(3,4-difluorophenyl)piperidin-1-yl)-3-oxopropyl) imidazolidine-2,4-dione] |  | > 100 | > 100 | 
5 | CCOc1cc(C2CCN(C(=O)CC[C@H]3NC(=O)NC3=O)CC2)cc(OC)c1Cl [Cpd 88, (5R)-5-[3-[4-(4-chloro-3-ethoxy-5-methoxy-phenyl)-1-piperidyl]-3-oxo-propyl] imidaz olidine-2,4-dione] | 50 to 100 | 0.001 to 25 | > 100 | 
6 | CC1(CCC(=O)N2CCC(c3ccc(F)c(F)c3)CC2)NC(=O)NC1=O (centres unmarked) [Cpd 56, 5-(3-(4-(3,4-difluorophenyl)piperidin-1-yl)-3-oxopropyl)-5-methyl-imidazolidine-2,4-dione] |  | > 100 | > 100 | 
7 | COc1cc(C2CCN(C(=O)CC[C@H]3NC(=O)NC3=O)CC2)ccc1F [Cpd 52, (R)-5-(3-(4-(4-fluoro-3-methoxyphenyl)piperidin-1-yl)-3-oxopropyl) imidazolidine-2,4-dione] |  | > 100 | > 100 | > 100
8 | Cc1cc(Cl)c(F)cc1C1CCN(C(=O)CC[C@H]2NC(=O)NC2=O)CC1 [Cpd 63, (R)-5-(3-(4-(4-chloro-5-fluoro-2-methylphenyl)piperidin-1-yl)-3-oxopropyl) imidazolidine-2,4-dione] |  | 50 to 100 | > 100 | 
9 | COc1cc(C2CCN(C(=O)CC[C@@]3(C)NC(=O)NC3=O)CC2)c(C)cc1F [Cpd 83, (5R)-5-[3-[4-(4-fluoro-5-methoxy-2-methyl-phenyl)-1-piperidyl]-3-oxo-propyl]-5-methyl-imidazolidine-2,4-dione] |  | 25 to 50 |  | 
10 | COc1ccc(Cl)cc1C1CCN(C(=O)CC[C@H]2NC(=O)NC2=O)CC1 [Cpd 40, (R)-5-(3-(4-(5-chloro-2-methoxy-phenyl)piperidin-1-yl)-3-oxopropyl) imidazolidine-2,4-dione] |  | > 100 | > 100 | 
11 | COc1cc(C2CCN(C(=O)CC[C@H]3NC(=O)NC3=O)CC2)cc(Cl)c1Cl [Cpd 69, (R)-5-(3-(4-(3,4-dichloro-5-methoxyphenyl)piperidin-1-yl)-3-oxopropyl) imidazolidine-2,4-dione] | 50 to 100 | 0.001 to 25 |  | 
12 | C[C@H]1CN(C(=O)CC[C@@]2(C)NC(=O)NC2=O)CC[C@H]1c1ccc(F)c(F)c1 [Cpd 99, (5R)-5-[3-[(3R,4R)-4-(3,4-difluorophenyl)-3-methyl-1-piperidyl]-3-oxo-propyl]-5-methyl-imidazolidine-2,4-dione] |  | 25 to 50 | 50 to 100 | 
13 | C[C@H]1CN(C(=O)CC[C@@]2(C3CC3)NC(=O)NC2=O)CC[C@@H]1c1ccc(F)c(F)c1 [Cpd 77, (S)-5-cyclopropyl-5-(3-((3R,4S)-4-(3,4-difluorophenyl)-3-methylpiperidin-1-yl)-3-oxopropyl) imidazolidine-2,4-dione] |  | > 100 | > 100 | > 100
14 | Cc1cc(C2CCN(C(=O)CC[C@@]3(C)NC(=O)NC3=O)CC2)ccc1Cl [Cpd 95, (5R)-5-[3-[4-(4-chloro-3-methyl-phenyl)-1-piperidyl]-3-oxo-propyl]-5-methyl-imidazolidine-2,4-dione] |  | 0.001 to 25 |  | 
15 | COc1ccc(C2CCN(C(=O)CCC3(C)NC(=O)NC3=O)CC2)cc1 (centres unmarked) [Cpd 31, 5-(3-(4-(4-methoxyphenyl)piperidin-1-yl)-3-oxopropyl)-5-methyl-imidazolidine-2,4-dione] |  | > 100 | > 100 | 
16 | CC1(CCC(=O)N2CCC(c3ccc(-c4ccccc4F)s3)CC2)NC(=O)NC1=O (centres unmarked) [Cpd 112, 5-[3-[4-[5-(2-fluorophenyl)-2-thienyl]-1-piperidyl]-3-oxo-propyl]-5-methyl-imidazolidine-2,4-dione] |  | 50 to 100 | > 100 | 
17 | C[C@]1(CCC(=O)N2CCC(c3ccc(Cl)c(C(F)(F)F)c3)CC2)NC(=O)NC1=O [Cpd 94, (5R)-5-[3-[4-[4-chloro-3-(trifluoromethyl)phenyl]-1-piperidyl]-3-oxo-propyl]-5-methyl-imidazolidine-2,4-dione] |  | 25 to 50 |  | 
18 | Cc1cc(Cl)ccc1C1CCN(C(=O)CC[C@H]2NC(=O)NC2=O)CC1 [Cpd 59, (R)-5-(3-(4-(4-chloro-2-methylphenyl)piperidin-1-yl)-3-oxopropyl) imidazolidine-2,4-dione] |  | > 100 |  | 
19 | COc1cc(Cl)c(Cl)cc1C1CCN(C(=O)CCC2(c3cccc(C)n3)NC(=O)NC2=O)CC1 (centres unmarked) [Cpd 92, 5-[3-[4-(4,5-dichloro-2-methoxy-phenyl)-1-piperidyl]-3-oxo-propyl]-5-(6-methyl-2-pyridyl) imidazolidine-2,4-dione] |  | 0.001 to 25 |  | 
20 | COc1ccc(OC)c(C2CCN(C(=O)CC[C@H]3NC(=O)NC3=O)CC2)c1 [Cpd 35, (R)-5-(3-(4-(2,5-dimethoxy-phenyl)piperidin-1-yl)-3-oxopropyl) imidazolidine-2,4-dione] |  | > 100 | > 100 | 
21 | COc1c(Cl)cccc1C1CCN(C(=O)CC[C@@]2(C)NC(=O)NC2=O)CC1 [Cpd 86, (5R)-5-[3-[4-(3-chloro-2-methoxy-phenyl)-1-piperidyl]-3-oxo-propyl]-5-methyl-imidazolidine-2,4-dione] |  | > 100 | > 100 | 
22 | COc1cc(Cl)c(Cl)cc1C1CCN(C(=O)CCC2(C)NC(=O)NC2=O)CC1 (centres unmarked) [Cpd 62, 5-(3-(4-(4,5-dichloro-2-methoxyphenyl)piperidin-1-yl)-3-oxopropyl)-5-methyl-imidazolidine-2,4-dione] |  | 0.001 to 25 |  | 
23 | COc1ccc(C2CCN(C(=O)CC[C@H]3NC(=O)NC3=O)CC2)cc1 [Cpd 30, (R)-5-(3-(4-(4-methoxyphenyl)piperidin-1-yl)-3-oxopropyl) imidazolidine-2,4-dione] |  | > 100 | > 100 | 
24 | COc1cc(C2CCN(C(=O)CC[C@H]3NC(=O)NC3=O)CC2)cc(N(C)C)c1Cl [Cpd 91] |  | 25 to 50 |  | 
25 | C[C@H]1CN(C(=O)CCC2(C3CC3)NC(=O)NC2=O)CC[C@H]1c1ccc(F)c(F)c1 (stereo partly drawn) [Cpd 76, 5-cyclopropyl-5-(3-((3R,4R)-4-(3,4-difluorophenyl)-3-methylpiperidin-1-yl)-3-oxopropyl) imidazolidine-2,4-dione] |  | 50 to 100 | 50 to 100 | > 100
26 | Cc1cc(Cl)ccc1C1CCN(C(=O)CCC2(C)NC(=O)NC2=O)CC1 (centres unmarked) [Cpd 60, 5-(3-(4-(4-chloro-2-methylphenyl)piperidin-1-yl)-3-oxopropyl)-5-methyl-imidazolidine-2,4-dione] |  | 50 to 100 | > 100 | 
27 | C[C@H]1CN(C(=O)CC[C@@]2(C3CC3)NC(=O)NC2=O)CC[C@H]1c1ccc(F)c(F)c1 [Cpd 78, (S)-5-cyclopropyl-5-(3-((3R,4R)-4-(3,4-difluorophenyl)-3-methylpiperidin-1-yl)-3-oxopropyl) imidazolidine-2,4-dione] |  | 25 to 50 | 25 to 50 | > 100
28 | COc1cc(C2CCN(C(=O)CC[C@H]3NC(=O)NC3=O)CC2)cc(OC)c1F [Cpd 82, (5R)-5-[3-[4-(4-fluoro-3,5-dimethoxy-phenyl)-1-piperidyl]-3-oxo-propyl] imidazolidine-2,4-dione] | 50 to 100 | 0.001 to 25 |  | 
